Results on 1 molecule are retold here after BindingDB's records for doi:10.1016/0024-3205(94)00413-m (Sanofi Recherche, 1995).

“And” between values parts separate entries of the source, which are not always exact repeats. Identical values can stand only once.

For assay [1], the target named is Substance-P receptor (Rattus norvegicus, UniProt P14600).
In assay [2] the target is T1, Substance-K receptor (Rattus norvegicus, UniProt P16610).
T1 sequence (P16610 whole entry): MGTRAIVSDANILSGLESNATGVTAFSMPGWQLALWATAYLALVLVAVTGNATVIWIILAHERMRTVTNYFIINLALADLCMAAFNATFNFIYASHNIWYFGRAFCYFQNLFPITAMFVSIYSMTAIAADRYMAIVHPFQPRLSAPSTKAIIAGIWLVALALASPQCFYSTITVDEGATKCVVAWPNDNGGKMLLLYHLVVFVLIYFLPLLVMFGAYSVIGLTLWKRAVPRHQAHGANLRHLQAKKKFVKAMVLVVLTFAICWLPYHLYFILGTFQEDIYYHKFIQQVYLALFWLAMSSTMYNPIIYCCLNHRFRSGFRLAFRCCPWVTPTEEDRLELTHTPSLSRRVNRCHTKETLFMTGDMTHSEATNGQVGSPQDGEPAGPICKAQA

The target of assay [3] is T2, Substance-K receptor (Mesocricetus auratus, UniProt P51144).
T2 sequence (P51144 whole entry): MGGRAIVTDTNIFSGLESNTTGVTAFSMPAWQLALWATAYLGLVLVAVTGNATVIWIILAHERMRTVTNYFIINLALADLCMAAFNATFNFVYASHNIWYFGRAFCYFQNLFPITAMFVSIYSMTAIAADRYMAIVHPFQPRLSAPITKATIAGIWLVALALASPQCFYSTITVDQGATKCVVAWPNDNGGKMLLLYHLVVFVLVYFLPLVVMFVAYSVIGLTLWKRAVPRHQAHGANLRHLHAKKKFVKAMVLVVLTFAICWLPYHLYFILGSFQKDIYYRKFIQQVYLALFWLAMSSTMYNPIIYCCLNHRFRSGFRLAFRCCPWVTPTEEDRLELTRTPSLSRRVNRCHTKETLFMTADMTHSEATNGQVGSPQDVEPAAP

The target in assay [4] is T3, Substance-K receptor (Cavia porcellus, UniProt Q64077).
T3 sequence (Q64077 whole entry): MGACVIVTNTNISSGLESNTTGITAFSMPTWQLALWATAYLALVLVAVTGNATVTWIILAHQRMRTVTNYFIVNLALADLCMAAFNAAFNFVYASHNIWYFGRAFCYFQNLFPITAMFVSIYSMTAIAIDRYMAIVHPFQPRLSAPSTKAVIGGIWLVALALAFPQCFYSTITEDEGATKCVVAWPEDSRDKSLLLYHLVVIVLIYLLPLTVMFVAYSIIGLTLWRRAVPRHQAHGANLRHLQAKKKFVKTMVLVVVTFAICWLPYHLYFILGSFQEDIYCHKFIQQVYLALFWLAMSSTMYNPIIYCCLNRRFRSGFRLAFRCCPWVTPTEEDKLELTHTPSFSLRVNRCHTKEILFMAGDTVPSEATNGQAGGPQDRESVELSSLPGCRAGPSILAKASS

Substance-P receptor, sequence (P14600 whole entry): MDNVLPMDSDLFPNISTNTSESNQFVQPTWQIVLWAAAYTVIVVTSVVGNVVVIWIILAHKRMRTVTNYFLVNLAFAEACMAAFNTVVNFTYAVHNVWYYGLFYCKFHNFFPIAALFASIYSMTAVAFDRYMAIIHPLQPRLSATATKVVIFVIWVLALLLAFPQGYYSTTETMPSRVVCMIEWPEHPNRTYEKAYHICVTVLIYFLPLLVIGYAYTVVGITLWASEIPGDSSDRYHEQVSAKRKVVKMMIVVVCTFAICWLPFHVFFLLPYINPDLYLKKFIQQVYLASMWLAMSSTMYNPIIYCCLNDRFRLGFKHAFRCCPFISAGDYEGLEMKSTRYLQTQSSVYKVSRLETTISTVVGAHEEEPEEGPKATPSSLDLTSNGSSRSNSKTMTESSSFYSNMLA

With `CC(=O)N(C)C1(c2ccccc2)CCN(CCCC2(c3ccc(Cl)c(Cl)c3)CCCN(C(=O)c3ccccc3)C2)CC1` (centres undefined) [SR 142806], the Ki in assay [1] is 2 µM; in assay [2], 0.1 µM and 0.248 µM; in assay [3] it was 2 µM; in assay [4], 0.073 µM and 0.35 µM.
